Test results: article PMC4381587, “A novel PI3K inhibitor PIK-C98 displays potent preclinical activity against multiple myeloma” (Oncotarget, 2014)

How the values were obtained:
[1] = test system: KMS11, LP1, OCI-My5, OPM2, JJN3, and RPMI-8226; experiment: Immunoblotting of PARP and caspase-3 cleavage in MM cell lines; type: cell-based; conditions: all cell lines examined, 20 μM, 24 hr
Method: (§1) To answer whether C98 could induce apoptosis in other MM cells, 5 more MM cells were subject to the study. […] Cell apoptosis induced by C98 was further confirmed by the increased fraction of positive cells stained with Annexin V (Figure 5). To show whether activated PI3K signals can rescue C98 effects on MM cells, both OPM2 and RPMI-8226 cells were treated with IGF-1 alone or together with C98 for 48 hr followed by MTT assay.
(§2) Figure 4 C98 activates apoptotic signaling in MM cells (A) JJN3 cells were treated with C98 (0, 2.5, 5, 10, 20 μM) for 24 hr or 10 μM for 0, 3, 6, or 9 hr, followed by immunoblotting for the expression of p-AKT, t-AKT, pro-caspase-3 (Pro-Casp3), and cleaved caspase-3 (Cle-Casp3). (B) KMS11, LP1, OCI-My5, OPM2, JJN3, and RPMI-8226 were treated with C98 (20 μM) for 24 hr, followed by immunoblotting for the expression of PARP, Pro-Casp3, and Cle-Casp3. GAPDH was used as a loading control.
(§3) The immunoblotting assays were performed as described previously. IRDye 680 goat anti-mouse and IRDye 800CW goat anti-rabbit antibodies were from Odyssey (San Ramon, CA, USA).

[2] = test system: ERK; experiment: Immunoblotting of ERK phosphorylation in OPM2 and JJN3 cells; type: cell-based, human; conditions: OPM2 and JJN3, 24 hr
Method: (§4) (B) LP1 and JJN3 cells were starved overnight, then treated with C98 or S14161 for 2 hr, followed by IGF-1 (100 ng/mL) for 15 min. Cells were then prepared for the analysis of the expression of p-AKT, t-AKT, p-IGF-1R, and IGF-1R by immunoblotting. (C) OPM2 and JJN3 cells were treated with increasing concentrations of C98 for 24 hr before being applied to immunoblotting against p-ERK, t-ERK, p-P38, t-P38, p-Src, t-Src, p-STAT3, or t-STAT3. GAPDH and β-actin were used as loading controls.
(§5) To further clarify the effects of C98 on other signaling pathways associated with PI3K signaling, we evaluated ERK and p38, both of which mediate extracellular signaling similar to PI3K. […] We also checked the phosphorylation status of STAT3, a signal transducer and activator of transcription. […] Therefore, C98 had no effects on these kinases/proteins associated with PI3K signaling.
as §3

[3] = target: recombinant human PI3K isoform α (Homo sapiens, UniProt P42336); experiment: Kinase activity in cell-free assay (HotSpot), PI3Kα; type: biochemical; conditions: read-out: IC50 against PI3K α isoform
Chain of recombinant human PI3K isoform α (P42336 whole entry, canonical isoform): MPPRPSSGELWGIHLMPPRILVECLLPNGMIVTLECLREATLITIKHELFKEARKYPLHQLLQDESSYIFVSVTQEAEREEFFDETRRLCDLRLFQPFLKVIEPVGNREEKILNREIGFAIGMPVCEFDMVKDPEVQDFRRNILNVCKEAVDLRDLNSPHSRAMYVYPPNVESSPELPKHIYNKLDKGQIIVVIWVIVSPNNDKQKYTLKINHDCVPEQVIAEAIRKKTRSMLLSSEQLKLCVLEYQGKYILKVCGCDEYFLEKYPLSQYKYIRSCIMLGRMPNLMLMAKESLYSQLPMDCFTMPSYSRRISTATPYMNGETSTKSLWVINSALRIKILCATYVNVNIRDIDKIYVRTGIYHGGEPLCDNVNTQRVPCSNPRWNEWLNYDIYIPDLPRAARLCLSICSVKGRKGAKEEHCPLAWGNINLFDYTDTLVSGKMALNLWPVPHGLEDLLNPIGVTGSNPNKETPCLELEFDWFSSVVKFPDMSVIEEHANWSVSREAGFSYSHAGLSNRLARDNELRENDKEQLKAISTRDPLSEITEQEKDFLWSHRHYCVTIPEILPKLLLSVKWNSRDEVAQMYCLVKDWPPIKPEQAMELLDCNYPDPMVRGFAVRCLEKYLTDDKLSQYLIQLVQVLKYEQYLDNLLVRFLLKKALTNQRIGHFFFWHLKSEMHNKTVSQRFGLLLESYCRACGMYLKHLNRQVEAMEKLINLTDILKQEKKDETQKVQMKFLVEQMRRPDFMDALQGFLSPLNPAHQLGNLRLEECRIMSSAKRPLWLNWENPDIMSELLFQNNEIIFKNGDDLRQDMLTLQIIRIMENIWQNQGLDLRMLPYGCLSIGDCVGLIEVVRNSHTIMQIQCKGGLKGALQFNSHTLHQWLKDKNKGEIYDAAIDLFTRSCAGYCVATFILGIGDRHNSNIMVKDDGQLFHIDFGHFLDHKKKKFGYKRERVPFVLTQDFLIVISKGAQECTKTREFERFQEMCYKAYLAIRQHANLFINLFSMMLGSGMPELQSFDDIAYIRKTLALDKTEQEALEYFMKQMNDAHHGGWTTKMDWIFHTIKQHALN
Chain of recombinant human PI3K isoform α (P27986 whole entry partner, canonical isoform): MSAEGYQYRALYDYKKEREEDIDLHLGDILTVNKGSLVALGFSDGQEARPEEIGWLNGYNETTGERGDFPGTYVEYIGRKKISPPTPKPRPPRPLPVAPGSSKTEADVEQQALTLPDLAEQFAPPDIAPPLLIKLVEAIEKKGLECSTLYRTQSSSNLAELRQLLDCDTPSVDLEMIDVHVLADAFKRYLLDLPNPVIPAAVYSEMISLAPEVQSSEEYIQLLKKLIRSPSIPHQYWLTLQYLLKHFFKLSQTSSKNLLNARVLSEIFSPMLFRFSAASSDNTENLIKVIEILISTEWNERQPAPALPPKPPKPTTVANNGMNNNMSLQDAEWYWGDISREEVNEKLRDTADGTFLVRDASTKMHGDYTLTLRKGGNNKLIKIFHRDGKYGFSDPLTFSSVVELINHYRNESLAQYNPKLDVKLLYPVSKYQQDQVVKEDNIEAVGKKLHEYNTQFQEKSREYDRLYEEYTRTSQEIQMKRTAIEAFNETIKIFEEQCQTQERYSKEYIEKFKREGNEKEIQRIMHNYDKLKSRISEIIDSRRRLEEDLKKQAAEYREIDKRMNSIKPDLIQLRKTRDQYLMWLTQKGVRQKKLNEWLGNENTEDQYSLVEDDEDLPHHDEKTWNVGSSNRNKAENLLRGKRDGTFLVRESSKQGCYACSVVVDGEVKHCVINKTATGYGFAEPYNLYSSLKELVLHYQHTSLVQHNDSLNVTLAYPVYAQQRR
Method: (§6) To confirm this hypothesis, the inhibitory potency of C98 on PI3K enzymes was measured in a cell-free system with individual recombinant human PI3K isoforms. […] To further evaluate its specificity on PI3K, the effects of C98 on other associated kinases AKT, PDK1, and mTOR were also measured in the enzymatic systems. […] Therefore, C98 preferred to inhibit PI3K activity.
(§7) Figure 1 C98 inhibits PI3K activity (A) Chemical structure of C98. (B) OPM2 cells were starved overnight and then treated with six compounds identified from the virtual screening for 2 hr, followed by IGF-1 stimulation for 15 min. Cell lysates were prepared for AKT expression and phosphorylation analyses. The known PI3K inhibitor S14161 was used as a positive control. (C) OPM2 cells were starved overnight, then treated with C98 at indicated concentration (25, 50 and 100 μM) or S14161 (100 μM) for 2 hr, followed by IGF-1 (100 ng/mL) stimulation for 15 min Cell lysates were prepared for AKT expression and phosphorylation analyses. […] Activity of each kinase was determined with HotSpot technology as described in the Methods section “Kinase activity in cell-free assay”. […]

[4] = target: recombinant human PI3K isoform δ (Homo sapiens, UniProt O00329); experiment: Kinase activity in cell-free assay (HotSpot), PI3Kδ; type: biochemical; conditions: read-out: IC50 against PI3K δ isoform
Chain of recombinant human PI3K isoform δ (O00329 whole entry, canonical isoform): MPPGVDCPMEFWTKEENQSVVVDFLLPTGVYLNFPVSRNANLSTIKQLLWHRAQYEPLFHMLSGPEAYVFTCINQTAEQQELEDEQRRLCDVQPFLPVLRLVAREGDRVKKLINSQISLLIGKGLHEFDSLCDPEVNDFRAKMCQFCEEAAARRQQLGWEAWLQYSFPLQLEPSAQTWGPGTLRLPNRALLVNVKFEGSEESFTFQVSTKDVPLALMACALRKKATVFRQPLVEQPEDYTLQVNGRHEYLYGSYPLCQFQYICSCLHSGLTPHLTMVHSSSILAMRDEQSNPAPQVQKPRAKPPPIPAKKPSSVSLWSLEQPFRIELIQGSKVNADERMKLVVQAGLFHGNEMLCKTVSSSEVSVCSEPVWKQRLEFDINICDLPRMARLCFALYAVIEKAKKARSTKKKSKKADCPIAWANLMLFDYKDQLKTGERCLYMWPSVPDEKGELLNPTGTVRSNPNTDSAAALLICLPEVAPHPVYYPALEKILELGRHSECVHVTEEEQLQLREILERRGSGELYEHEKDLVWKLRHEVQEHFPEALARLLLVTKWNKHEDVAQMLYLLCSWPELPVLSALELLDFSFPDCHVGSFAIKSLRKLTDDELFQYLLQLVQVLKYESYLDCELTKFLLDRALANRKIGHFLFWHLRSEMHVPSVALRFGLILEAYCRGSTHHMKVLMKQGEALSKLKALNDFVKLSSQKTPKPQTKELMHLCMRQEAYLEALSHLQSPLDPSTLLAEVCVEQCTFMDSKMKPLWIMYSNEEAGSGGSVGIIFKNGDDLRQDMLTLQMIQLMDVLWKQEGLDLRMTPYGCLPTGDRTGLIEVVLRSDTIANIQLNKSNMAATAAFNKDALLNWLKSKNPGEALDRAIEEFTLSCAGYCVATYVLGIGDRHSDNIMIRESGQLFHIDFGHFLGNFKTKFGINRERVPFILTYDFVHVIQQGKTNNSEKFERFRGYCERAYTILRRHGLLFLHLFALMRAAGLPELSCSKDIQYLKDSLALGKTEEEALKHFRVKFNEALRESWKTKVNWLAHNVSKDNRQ
Chain of recombinant human PI3K isoform δ (P27986 whole entry partner, canonical isoform): as the sequence (P27986 whole entry partner, canonical isoform) above
Method: as §6, §7

[5] = test system: AKT; experiment: Kinase activity in cell-free assay, AKT; type: biochemical; conditions: enzymatic system; read-out: IC50 on AKT activation
Method: as §6
(§8) Kinase activity in the presence of C98 was performed by using the HotSpot technology (Reaction Biology Corp., Malvern, PA, USA) as described previously.

[6] = test system: OPM2 and RPMI-8226 cells; experiment: MTT assay with IGF-1 rescue; type: cell-based; conditions: OPM2 and RPMI-8226, IGF-1 alone or together with C98, 48 hr
Method: as §1
Cell viability was assessed with the MTT assay as reported previously. To show apoptosis, MM cells were incubated for 24 hr with increasing concentrations of C98 before being stained with Annexin V-FITC and propidium iodide (BioVision Milpitas, CA). Apoptotic cells were measured on a flow cytometer (FACSCalibur®, Becton Dickinson) as reported as previously. […]
www.impactjournals.com/oncotarget/ Oncotarget, Supplementary Materials 2014
Supplementary Figure S3: IGF-1 rescues C98-decreased MM cell proliferation. OPM2 and RPMI-8226 cells were treated with IGF-1 alone or increased C98 for 48 hr, followed by MTT assay. […]

[7] = test system: STAT3; experiment: Immunoblotting of STAT3 phosphorylation in OPM2 and JJN3 cells; type: cell-based, human; conditions: OPM2 and JJN3, 24 hr
Method: as §4, §5, §3

[8] = target: recombinant human PI3K isoform γ (Homo sapiens, UniProt P48736); experiment: Kinase activity in cell-free assay (HotSpot), PI3Kγ; type: biochemical; conditions: read-out: IC50 against PI3K γ isoform
Chain of recombinant human PI3K isoform γ (P48736 whole entry, canonical isoform): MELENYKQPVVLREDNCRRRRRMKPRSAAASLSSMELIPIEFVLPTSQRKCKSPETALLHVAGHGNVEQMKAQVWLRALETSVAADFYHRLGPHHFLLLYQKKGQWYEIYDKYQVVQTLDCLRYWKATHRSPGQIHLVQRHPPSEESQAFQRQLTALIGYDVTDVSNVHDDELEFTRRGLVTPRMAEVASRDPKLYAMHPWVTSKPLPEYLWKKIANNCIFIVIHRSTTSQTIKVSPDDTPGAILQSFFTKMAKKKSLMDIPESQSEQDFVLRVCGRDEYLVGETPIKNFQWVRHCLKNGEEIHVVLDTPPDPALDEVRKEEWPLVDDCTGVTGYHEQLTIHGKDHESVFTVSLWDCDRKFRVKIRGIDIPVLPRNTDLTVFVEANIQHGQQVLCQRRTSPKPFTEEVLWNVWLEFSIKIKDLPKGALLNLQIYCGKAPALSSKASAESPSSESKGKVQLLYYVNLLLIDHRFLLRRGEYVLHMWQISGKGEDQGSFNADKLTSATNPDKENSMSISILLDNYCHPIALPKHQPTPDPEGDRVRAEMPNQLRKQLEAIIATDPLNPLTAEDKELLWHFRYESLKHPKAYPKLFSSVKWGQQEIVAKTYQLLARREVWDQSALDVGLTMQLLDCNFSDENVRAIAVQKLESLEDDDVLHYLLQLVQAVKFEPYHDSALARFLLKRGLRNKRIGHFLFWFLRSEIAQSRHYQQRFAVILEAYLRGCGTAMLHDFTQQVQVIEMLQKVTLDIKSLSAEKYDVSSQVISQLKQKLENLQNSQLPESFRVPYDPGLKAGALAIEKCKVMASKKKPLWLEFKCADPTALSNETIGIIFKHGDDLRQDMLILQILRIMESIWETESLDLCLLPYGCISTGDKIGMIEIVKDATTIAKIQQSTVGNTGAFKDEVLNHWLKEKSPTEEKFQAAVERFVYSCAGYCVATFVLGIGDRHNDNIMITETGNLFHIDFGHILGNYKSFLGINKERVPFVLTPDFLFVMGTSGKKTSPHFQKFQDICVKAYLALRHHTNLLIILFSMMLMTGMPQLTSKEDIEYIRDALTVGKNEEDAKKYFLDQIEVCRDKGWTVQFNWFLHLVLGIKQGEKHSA
Method: as §6, §7

[9] = test system: T1, PDK1; experiment: Kinase activity in cell-free assay, PDK1; type: biochemical; conditions: enzymatic system, even at a concentration of 300 μM
T1 construct: purchased Reaction Biology Corp., Malvern, PA, USA
Method: as §6, §8

[10] = test system: JJN3 cells; experiment: Immunoblotting of caspase-3 activation in JJN3 cells; type: cell-based, human; conditions: JJN3, 0-20 μM 24 hr or 10 μM 0-9 hr
Method: as §1, §2, §3

[11] = target: recombinant human PI3K isoform β (Homo sapiens, UniProt P42338); experiment: Kinase activity in cell-free assay (HotSpot), PI3Kβ; type: biochemical; conditions: read-out: IC50 against PI3K β isoform
Chain of recombinant human PI3K isoform β (P42338 whole entry, canonical isoform): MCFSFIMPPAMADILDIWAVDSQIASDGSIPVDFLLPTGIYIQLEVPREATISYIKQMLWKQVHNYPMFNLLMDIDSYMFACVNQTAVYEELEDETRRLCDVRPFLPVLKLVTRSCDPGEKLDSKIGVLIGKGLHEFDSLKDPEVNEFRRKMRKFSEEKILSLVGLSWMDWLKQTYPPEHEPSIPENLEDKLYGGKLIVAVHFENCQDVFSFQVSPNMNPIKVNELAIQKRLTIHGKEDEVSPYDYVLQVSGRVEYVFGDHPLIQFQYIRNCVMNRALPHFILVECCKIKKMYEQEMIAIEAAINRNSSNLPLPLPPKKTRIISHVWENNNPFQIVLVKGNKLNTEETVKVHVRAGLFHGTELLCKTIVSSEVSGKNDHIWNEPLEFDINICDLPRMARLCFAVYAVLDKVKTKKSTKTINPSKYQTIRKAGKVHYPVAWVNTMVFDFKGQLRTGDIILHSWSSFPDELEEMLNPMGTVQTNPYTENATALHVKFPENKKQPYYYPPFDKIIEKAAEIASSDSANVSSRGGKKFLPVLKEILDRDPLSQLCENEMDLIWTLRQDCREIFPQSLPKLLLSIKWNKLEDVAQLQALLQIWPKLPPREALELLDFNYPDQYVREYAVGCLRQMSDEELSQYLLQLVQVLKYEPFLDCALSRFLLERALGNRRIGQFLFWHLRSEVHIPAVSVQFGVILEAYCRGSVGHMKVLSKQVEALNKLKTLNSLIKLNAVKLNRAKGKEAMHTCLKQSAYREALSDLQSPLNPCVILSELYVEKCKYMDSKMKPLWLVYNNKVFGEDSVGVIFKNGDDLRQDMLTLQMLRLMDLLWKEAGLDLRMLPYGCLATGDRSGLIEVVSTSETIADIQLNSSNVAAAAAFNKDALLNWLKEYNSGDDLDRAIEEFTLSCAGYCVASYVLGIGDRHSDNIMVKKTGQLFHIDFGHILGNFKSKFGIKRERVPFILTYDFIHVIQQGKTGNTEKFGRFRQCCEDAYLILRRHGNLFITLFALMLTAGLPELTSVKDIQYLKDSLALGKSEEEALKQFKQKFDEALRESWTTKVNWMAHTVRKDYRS
Chain of recombinant human PI3K isoform β (P27986 whole entry partner, canonical isoform): as the sequence (P27986 whole entry partner, canonical isoform) above
Method: as §6, §7

[12] = test system: T2, mTOR; experiment: Kinase activity in cell-free assay, mTOR; type: biochemical; conditions: enzymatic system, even at a concentration of 300 μM
T2 construct: purchased Reaction Biology Corp., Malvern, PA, USA
Method: as §6, §8

[13] = test system: JJN3 xenograft; experiment: JJN3 myeloma xenograft in nude mice; type: in vivo
[14] = test system: p38; experiment: Immunoblotting of p38 phosphorylation in OPM2 and JJN3 cells; type: cell-based, human; conditions: OPM2 and JJN3, 24 hr
Method: as §4, §5, §3

[15] = JJN3 xenograft, 40 mg/kg oral daily, 16 days
[16] = JJN3 xenograft, 80 mg/kg oral daily, 16 days

Compound: N#C/C(=C\C=C\c1ccc(-c2cc(Cl)ccc2Cl)o1)C(N)=S [C98]
- cleavage of caspase-3 and PARP (apoptosis) [1]: both caspase-3 and PARP were cleaved
- phosphorylation level of ERK [2]: failed to decrease
- IC50 [3]: 590 nM
- IC50 [4]: 3650 nM
- IC50 [5]: 61400 nM
- MM cell proliferation (MTT), rescue by IGF-1 [6]: IGF-1 could partly abolish C98-decreased MM cell proliferation
- phosphorylated STAT3 [7]: did not decrease
- IC50 [8]: 740 nM
- suppression of PDK1 activity [9]: failed to suppress
- caspase-3 activation [10]: activated caspase-3 in a time- and concentration-dependent manner
- IC50 [11]: 1640 nM
- suppression of mTOR activity [12]: failed to suppress
- AKT phosphorylation in tumors ([13]; JJN3 tumors, both 40 and 80 mg/kg doses, immunoblotting): decreased
- decrease of tumor growth [13, 15]: 48%
- tumor volume [13, 15]: 1293.1 ± 289.7 mm^3
- decreased tumor growth to % [13, 16]: 76.5%
- tumor volume [13, 16]: 581.2 ± 73.2 mm^3
- cleavage of PARP in tumors ([13]; MM tumors excised from C98-treated mice, especially high dose group): cleavage of PARP was found
- phosphorylation level of p38 [14]: failed to decrease
